Our source for the IC50 values is ChEMBL document CHEMBL3880402, “Inhibitors of E1 activating enzymes” (2006).

In general, IC50 refers to the midpoint of a concentration-inhibition curve.

In this assay the target is T1, NEDD8-activating enzyme E1 catalytic subunit (Homo sapiens, UniProt Q8TBC4).
T1 sequence (Q8TBC4 whole entry): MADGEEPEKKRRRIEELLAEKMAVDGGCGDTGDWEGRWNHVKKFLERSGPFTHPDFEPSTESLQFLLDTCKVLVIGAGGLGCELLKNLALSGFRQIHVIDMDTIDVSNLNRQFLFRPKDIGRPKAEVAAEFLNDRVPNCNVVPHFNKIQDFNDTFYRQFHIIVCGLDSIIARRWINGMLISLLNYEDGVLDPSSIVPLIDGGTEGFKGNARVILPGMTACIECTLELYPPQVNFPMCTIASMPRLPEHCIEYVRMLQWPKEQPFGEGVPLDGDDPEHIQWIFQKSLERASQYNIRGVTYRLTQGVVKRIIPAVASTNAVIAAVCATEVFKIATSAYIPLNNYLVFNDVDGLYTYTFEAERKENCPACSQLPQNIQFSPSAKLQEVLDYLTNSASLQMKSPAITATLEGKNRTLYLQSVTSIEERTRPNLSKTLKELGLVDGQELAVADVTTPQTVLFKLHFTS
Kind of assay: Inhibition of recombinant human untagged NAEalpha/N-terminal His-tagged NAEbeta expressed in Bac-to-Bac expression system using FLAG-tagged NEDD8 as substrate after 90 mins in presence of GST-tagged Ubc12 by HTRF assay. In general terms: In TR-FRET formats the signal depends on donor and acceptor labels being close together.
As to `NS(=O)(=O)OC[C@H]1O[C@@H](n2cnc3c(N[C@H]4CCc5ccccc54)ncnc32)[C@H](O)[C@@H]1O`, the 50% inhibitory concentration (IC50) was in the range of 100 to 1000 nM.
Next, `COCCNc1ncnc2c1ncn2[C@@H]1O[C@H](COS(N)(=O)=O)[C@@H](O)[C@H]1O`: 100 to 1000 nM; `NS(=O)(=O)OC[C@H]1O[C@@H](n2cnc3c(NCc4cccs4)ncnc32)[C@H](O)[C@@H]1O`: 100 to 1000 nM; `NS(=O)(=O)OC[C@H]1O[C@@H](n2cnc3c(-c4cccc(-n5cccn5)c4)ncnc32)[C@H](O)[C@@H]1O`: 100 to 1000 nM.
Regarding `NS(=O)(=O)OC[C@H]1O[C@@H](n2cnc3c(NCCc4ccccc4)ncnc32)[C@H](O)[C@@H]1O`, the IC50 lay within 100 to 1000 nM.
Next, `NS(=O)(=O)NC[C@H]1O[C@@H](n2cnc3c(NCCOc4ccccc4)ncnc32)[C@H](O)[C@@H]1O`: at most 1000 nM.
As for `NS(=O)(=O)OC[C@H]1O[C@@H](n2cnc3c(-c4cccc(C(F)(F)F)c4)ncnc32)[C@H](O)[C@@H]1O`, the IC50 was in the range of 100 to 1000 nM.
As to `NS(=O)(=O)OC[C@H]1O[C@@H](n2cnc3c(NCc4ccc(OC(F)(F)F)cc4)ncnc32)[C@H](O)[C@@H]1O`, the IC50 lay within 100 to 1000 nM.
The same measure for `COc1cccc(CNc2ncnc3c2ncn3[C@@H]2O[C@H](CNS(N)(=O)=O)[C@@H](O)[C@H]2O)c1`: 100 to 1000 nM.
The same measure for `NS(=O)(=O)OC[C@H]1O[C@@H](n2cnc3c(N[C@@H]4c5ccccc5C[C@@H]4O)ncnc32)[C@H](O)[C@@H]1O`: 100 to 1000 nM.
Next, `NS(=O)(=O)OC[C@H]1O[C@@H](n2ccc3c(N[C@H]4CCc5ccccc54)ncnc32)[C@H](O)[C@@H]1O`: 100 to 1000 nM.
Take `NS(=O)(=O)OC[C@H]1O[C@@H](n2cnc3c(NCc4ccc(Cl)cc4)ncnc32)[C@H](O)[C@@H]1O`: the IC50 was 100 to 1000 nM.
The same measure for `NS(=O)(=O)NC[C@H]1O[C@@H](n2cnc3c(N[C@@H](CO)c4ccccc4)ncnc32)[C@H](O)[C@@H]1O`: 100 to 1000 nM.
Next, `Cc1cnc(CNc2ncnc3c2ncn3[C@@H]2O[C@H](COS(N)(=O)=O)[C@@H](O)[C@H]2O)cn1`: 100 to 1000 nM.
As to `NS(=O)(=O)NC[C@H]1O[C@@H](n2cnc3c(NCc4ccccc4)ncnc32)[C@H](O)[C@@H]1O`, the IC50 fell in the range of 100 to 1000 nM.
For the molecule `NS(=O)(=O)OC[C@H]1O[C@@H](n2cnc3c(NCc4ccc(F)cc4)ncnc32)[C@H](O)[C@@H]1O`, the concentration for half-maximal inhibition (IC50) lay within 100 to 1000 nM.
Turning to `NS(=O)(=O)OC[C@H]1O[C@@H](n2cnc3c(NCCN4CCOCC4)ncnc32)[C@H](O)[C@@H]1O`, the 50% inhibitory concentration (IC50) lay within 100 to 1000 nM.
The same measure for `NS(=O)(=O)NC[C@H]1O[C@@H](n2cnc3c(N[C@@H]4c5ccccc5C[C@@H]4O)ncnc32)[C@H](O)[C@@H]1O`: 100 to 1000 nM.
Turning to `NS(=O)(=O)OC[C@H]1O[C@@H](n2cnc3c(NCC4CCNCC4)ncnc32)[C@H](O)[C@@H]1O`, the IC50 was 100 to 1000 nM.
With `NS(=O)(=O)OC[C@H]1O[C@@H](n2cnc3c(CCc4ccccc4)ncnc32)[C@H](O)[C@@H]1O`, the IC50 was 100 to 1000 nM.
As to `NS(=O)(=O)OC[C@H]1O[C@@H](n2cnc3c(NCCN4CCCC4)ncnc32)[C@H](O)[C@@H]1O`, the IC50 was in the range of 100 to 1000 nM.
Take `NS(=O)(=O)OC[C@H]1O[C@@H](n2cnc3c(Cc4ccc(F)cc4)ncnc32)[C@H](O)[C@@H]1O`: the IC50 was at most 1000 nM.
Turning to `NS(=O)(=O)OC[C@H]1O[C@@H](n2cnc3c(Nc4ccc(Cl)cc4)ncnc32)[C@H](O)[C@@H]1O`, the concentration for half-maximal inhibition (IC50) lay in the range of 100 to 1000 nM.
Take `NS(=O)(=O)NC[C@H]1O[C@@H](n2cnc3c(NCc4ccc5c(c4)OCO5)ncnc32)[C@H](O)[C@@H]1O`: the IC50 was in the range of 100 to 1000 nM.
Next, `NS(=O)(=O)OC[C@H]1O[C@@H](n2cnc3c(NCC4CCCCC4)ncnc32)[C@H](O)[C@@H]1O`: 100 to 1000 nM; `NS(=O)(=O)OC[C@H]1O[C@@H](n2cnc3c(NC(=O)c4ccc(F)cc4)ncnc32)[C@H](O)[C@@H]1O`: 100 to 1000 nM; `CO[C@@H]1[C@H](O)[C@@H](COS(N)(=O)=O)O[C@H]1n1cnc2c(N[C@H]3CCc4ccccc43)ncnc21`: 100 to 1000 nM.
Next, `NS(=O)(=O)OC[C@H]1O[C@@H](n2cnc3c(/C=C/c4ccccc4)ncnc32)[C@H](O)[C@@H]1O`: 100 to 1000 nM.
The same measure for `NS(=O)(=O)NC[C@H]1O[C@@H](n2cnc3c(N[C@H]4CCc5ccccc54)ncnc32)[C@H](O)[C@@H]1O`: 100 to 1000 nM; for `Cc1cnc(CNc2ncnc3c2ncn3[C@@H]2O[C@H](CNS(N)(=O)=O)[C@@H](O)[C@H]2O)cn1`: at most 1000 nM; for `C[C@@]1(O)[C@H](O)[C@@H](COS(N)(=O)=O)O[C@H]1n1cnc2c(N[C@H]3CCc4ccccc43)ncnc21`: 100 to 1000 nM.
As for `NS(=O)(=O)NC[C@H]1O[C@@H](n2cnc3c(NC[C@H](O)c4cccc(O)c4)ncnc32)[C@H](O)[C@@H]1O`, the half-inhibitory concentration (IC50) was in the range of 100 to 1000 nM.
In the case of `NS(=O)(=O)NC[C@H]1O[C@@H](n2cnc3c(NCc4csc5ccccc45)ncnc32)[C@H](O)[C@@H]1O`, the half-inhibitory concentration (IC50) is at most 1000 nM.
Next, `NS(=O)(=O)OC[C@H]1O[C@@H](n2cnc3c(-c4ccccc4)ncnc32)[C@H](O)[C@@H]1O`: 100 to 1000 nM.
In the case of `NS(=O)(=O)OC[C@H]1O[C@@H](n2cnc3c(NCc4ccc5c(c4)OCO5)ncnc32)[C@H](O)[C@@H]1O`, the IC50 lay within 100 to 1000 nM.
Next, `COCCNc1ncnc2c1ncn2[C@@H]1O[C@H](CNS(N)(=O)=O)[C@@H](O)[C@H]1O`: at most 1000 nM.
Next, `NS(=O)(=O)OC[C@H]1O[C@@H](n2cnc3c(NC(=O)c4ccccc4)ncnc32)[C@H](O)[C@@H]1O`: 100 to 1000 nM.
Turning to `COc1cccc(CNc2ncnc3c2ncn3[C@@H]2O[C@H](COS(N)(=O)=O)[C@@H](O)[C@H]2O)c1`, the IC50 was 100 to 1000 nM.
Consider `NS(=O)(=O)CC[C@H]1O[C@@H](n2cnc3c(NC(c4ccccc4)c4ccccc4)ncnc32)[C@H](O)[C@@H]1O`, for which the IC50 was in the range of 100 to 1000 nM.
The same measure for `NS(=O)(=O)OC[C@@H]1C[C@@H](O)[C@H](n2cnc3c(N[C@H]4CCc5ccccc54)ncnc32)O1`: 100 to 1000 nM; for `NS(=O)(=O)OC[C@H]1O[C@@H](n2cnc3c(N[C@H]4CCc5ccccc54)nc(Cl)nc32)[C@H](O)[C@@H]1O`: 100 to 1000 nM.
The same measure for `NS(=O)(=O)NC[C@H]1O[C@@H](n2cnc3c(N[C@@H]4CCc5ccccc54)ncnc32)[C@H](O)[C@@H]1O`: 100 to 1000 nM.
The same measure for `NS(=O)(=O)OC[C@H]1O[C@@H](n2cnc3c(NCc4cccc5ccccc45)ncnc32)[C@H](O)[C@@H]1O`: 100 to 1000 nM; for `COc1ccccc1CNc1ncnc2c1ncn2[C@@H]1O[C@H](COS(N)(=O)=O)[C@@H](O)[C@H]1O`: 100 to 1000 nM; for `NS(=O)(=O)CC[C@H]1O[C@@H](n2cnc3c(N[C@@H]4c5ccccc5C[C@@H]4O)ncnc32)[C@H](O)[C@@H]1O`: 100 to 1000 nM.
Take `NS(=O)(=O)OC[C@H]1O[C@@H](n2cnc3c(N[C@H]4CCc5ccccc54)ncnc32)[C@@H](O)[C@@H]1O`: the half-maximal inhibitory concentration (IC50) was 100 to 1000 nM.
For the molecule `NS(=O)(=O)OC[C@H]1O[C@@H](n2cnc3c(NCCN4CCN(Cc5ccccc5)CC4)ncnc32)[C@H](O)[C@@H]1O`, the half-inhibitory concentration (IC50) fell in the range of 100 to 1000 nM.
In the case of `NS(=O)(=O)CC[C@H]1O[C@@H](n2cnc3c(N[C@H]4CCc5ccccc54)ncnc32)[C@H](O)[C@@H]1O`, the IC50 lay in the range of 100 to 1000 nM.
Next, `NS(=O)(=O)OC[C@H]1C[C@@H](n2cnc3c(N[C@H]4CCc5ccccc54)ncnc32)[C@H](O)[C@@H]1O`: 100 to 1000 nM; `Cc1noc(C)c1-c1ncnc2c1ncn2[C@@H]1O[C@H](COS(N)(=O)=O)[C@@H](O)[C@H]1O`: 100 to 1000 nM; `NS(=O)(=O)OC[C@H]1O[C@@H](n2cnc3c(N[C@H](CO)c4ccccc4)ncnc32)[C@H](O)[C@@H]1O`: 100 to 1000 nM.
The same measure for `NS(=O)(=O)OC[C@H]1O[C@@H](n2cnc3c(N[C@H]4CCc5ccccc54)ncnc32)[C@@H](F)[C@@H]1O`: 100 to 1000 nM; for `NS(=O)(=O)OC[C@H]1O[C@@H](n2cnc3c(N[C@@H](CO)c4ccccc4)ncnc32)[C@H](O)[C@@H]1O`: 100 to 1000 nM; for `NS(=O)(=O)OC[C@H]1O[C@@H](n2cnc3c(C#Cc4ccccc4)ncnc32)[C@H](O)[C@@H]1O`: 100 to 1000 nM.
As for `NS(=O)(=O)OC[C@H]1O[C@@H](n2cnc3c(NCc4ccccc4)ncnc32)[C@H](O)[C@@H]1O`, the IC50 was in the range of 100 to 1000 nM.
For the molecule `CO[C@H]1[C@H](O)[C@@H](COS(N)(=O)=O)O[C@H]1n1cnc2c(N[C@H]3CCc4ccccc43)ncnc21`, the IC50 was 100 to 1000 nM.
Turning to `NS(=O)(=O)NC[C@H]1O[C@@H](n2cnc3c(NCc4cccs4)ncnc32)[C@H](O)[C@@H]1O`, the IC50 was in the range of 100 to 1000 nM.
Turning to `NS(=O)(=O)NC[C@H]1O[C@@H](n2cnc3c(NCC(c4ccccc4)c4ccccc4)ncnc32)[C@H](O)[C@@H]1O`, the IC50 lay in the range of 100 to 1000 nM.
As for `NS(=O)(=O)NC[C@H]1O[C@@H](n2cnc3c(NCc4cccc5ccccc45)ncnc32)[C@H](O)[C@@H]1O`, the IC50 fell in the range of 100 to 1000 nM.
Next, `NS(=O)(=O)OC[C@H]1O[C@@H](n2cnc3c(NS(=O)(=O)c4ccccc4)ncnc32)[C@H](O)[C@@H]1O`: 100 to 1000 nM; `NS(=O)(=O)OC[C@H]1O[C@@H](n2cnc3c(C#Cc4ccccc4Cl)ncnc32)[C@H](O)[C@@H]1O`: 100 to 1000 nM; `Nc1nc(N[C@H]2CCc3ccccc32)c2ncn([C@@H]3O[C@H](COS(N)(=O)=O)[C@@H](O)[C@H]3O)c2n1`: 100 to 1000 nM.
Next, `NS(=O)(=O)CC[C@H]1O[C@@H](n2cnc3c(NCc4ccc(Cl)cc4)ncnc32)[C@H](O)[C@@H]1O`: 100 to 1000 nM; `NS(=O)(=O)OC[C@H]1O[C@@H](n2cnc3c(CCc4ccccc4)ncnc32)[C@@H](F)[C@@H]1O` (relative stereo): 100 to 1000 nM.
